Assay results: patent publication US8148391B2 (Cephalon, Inc., priority 2006, dated 2012)
Read-outs that look alike come from different tables or passages of the source.

What was measured:
[1] = molecular target: T1, baculovirus-expressed ALK (Homo sapiens, UniProt Q9UM73); assay: ALK Kinase Assay (ELISA-type, time-resolved fluorescence); type: biochemical
T1 construct: host or cells: baculovirus expression system
How it was run: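 Plates coated with phospholipase C-γ substrate (10 μg/mL in TBS); reaction started with 30 ng/ml ALK and run 15 min at 37° C. Phosphorylated substrate detected with Eu-N1-labeled PT66 antibody. IC50 from sigmoidal variable-slope fit of percent inhibition vs log concentration.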

[2] = molecular target: T2, c-Met (cytoplasmic domain) (Homo sapiens, UniProt P08581); assay: c-Met Kinase Assay (same methods as for ALK, with modifications); type: biochemical
T2 construct: 10 ng/mL c-Met (cytoplasmic domain, Invitrogen Corporation #PV3143); purchased Invitrogen Corporation PV3143
T2 sequence (P08581 956-1390 limits assumed): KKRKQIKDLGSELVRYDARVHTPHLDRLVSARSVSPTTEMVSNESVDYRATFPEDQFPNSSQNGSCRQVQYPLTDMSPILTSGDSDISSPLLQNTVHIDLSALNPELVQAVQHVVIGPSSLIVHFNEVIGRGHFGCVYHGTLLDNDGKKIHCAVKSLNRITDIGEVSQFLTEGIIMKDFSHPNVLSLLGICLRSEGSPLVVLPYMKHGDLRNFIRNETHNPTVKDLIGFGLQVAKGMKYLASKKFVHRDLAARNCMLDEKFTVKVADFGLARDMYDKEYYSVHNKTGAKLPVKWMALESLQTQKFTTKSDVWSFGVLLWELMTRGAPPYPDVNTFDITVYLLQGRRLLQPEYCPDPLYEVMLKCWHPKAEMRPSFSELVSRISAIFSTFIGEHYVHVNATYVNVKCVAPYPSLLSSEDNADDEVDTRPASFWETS
How it was run: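 Plates were coated with phospholipase C-γ substrate (10 μg/mL) in TBS, and the reaction was started with 10 ng/mL c-Met cytoplasmic domain and run 15 min at 37 °C. Phosphoproduct was detected with Eu-N1-labelled PT66 antibody. IC50 came from a variable-slope sigmoidal fit of percent inhibition vs log concentration.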

[3] = ALK kinase inhibition, 1 μM ATP, read-out: ALK Activity
[4] = c-Met kinase inhibition, 1 μM ATP, read-out: cMet Activity
[5] = 1 μM ATP (Km level), 30 ng/ml ALK, 37° C., 15 minutes, read-out: ALK Activity (ALK kinase inhibition, IC50 class)
[6] = 1 μM ATP (Km level), 10 ng/mL c-Met, read-out: cMet Activity (c-Met kinase inhibition, IC50 class)
[7] = ALK kinase inhibition, 1 μM ATP (Km level), read-out: ALK Activity
[8] = c-Met kinase inhibition, 1 μM ATP (Km level), read-out: cMet Activity

T1 sequence (Q9UM73 19-1620): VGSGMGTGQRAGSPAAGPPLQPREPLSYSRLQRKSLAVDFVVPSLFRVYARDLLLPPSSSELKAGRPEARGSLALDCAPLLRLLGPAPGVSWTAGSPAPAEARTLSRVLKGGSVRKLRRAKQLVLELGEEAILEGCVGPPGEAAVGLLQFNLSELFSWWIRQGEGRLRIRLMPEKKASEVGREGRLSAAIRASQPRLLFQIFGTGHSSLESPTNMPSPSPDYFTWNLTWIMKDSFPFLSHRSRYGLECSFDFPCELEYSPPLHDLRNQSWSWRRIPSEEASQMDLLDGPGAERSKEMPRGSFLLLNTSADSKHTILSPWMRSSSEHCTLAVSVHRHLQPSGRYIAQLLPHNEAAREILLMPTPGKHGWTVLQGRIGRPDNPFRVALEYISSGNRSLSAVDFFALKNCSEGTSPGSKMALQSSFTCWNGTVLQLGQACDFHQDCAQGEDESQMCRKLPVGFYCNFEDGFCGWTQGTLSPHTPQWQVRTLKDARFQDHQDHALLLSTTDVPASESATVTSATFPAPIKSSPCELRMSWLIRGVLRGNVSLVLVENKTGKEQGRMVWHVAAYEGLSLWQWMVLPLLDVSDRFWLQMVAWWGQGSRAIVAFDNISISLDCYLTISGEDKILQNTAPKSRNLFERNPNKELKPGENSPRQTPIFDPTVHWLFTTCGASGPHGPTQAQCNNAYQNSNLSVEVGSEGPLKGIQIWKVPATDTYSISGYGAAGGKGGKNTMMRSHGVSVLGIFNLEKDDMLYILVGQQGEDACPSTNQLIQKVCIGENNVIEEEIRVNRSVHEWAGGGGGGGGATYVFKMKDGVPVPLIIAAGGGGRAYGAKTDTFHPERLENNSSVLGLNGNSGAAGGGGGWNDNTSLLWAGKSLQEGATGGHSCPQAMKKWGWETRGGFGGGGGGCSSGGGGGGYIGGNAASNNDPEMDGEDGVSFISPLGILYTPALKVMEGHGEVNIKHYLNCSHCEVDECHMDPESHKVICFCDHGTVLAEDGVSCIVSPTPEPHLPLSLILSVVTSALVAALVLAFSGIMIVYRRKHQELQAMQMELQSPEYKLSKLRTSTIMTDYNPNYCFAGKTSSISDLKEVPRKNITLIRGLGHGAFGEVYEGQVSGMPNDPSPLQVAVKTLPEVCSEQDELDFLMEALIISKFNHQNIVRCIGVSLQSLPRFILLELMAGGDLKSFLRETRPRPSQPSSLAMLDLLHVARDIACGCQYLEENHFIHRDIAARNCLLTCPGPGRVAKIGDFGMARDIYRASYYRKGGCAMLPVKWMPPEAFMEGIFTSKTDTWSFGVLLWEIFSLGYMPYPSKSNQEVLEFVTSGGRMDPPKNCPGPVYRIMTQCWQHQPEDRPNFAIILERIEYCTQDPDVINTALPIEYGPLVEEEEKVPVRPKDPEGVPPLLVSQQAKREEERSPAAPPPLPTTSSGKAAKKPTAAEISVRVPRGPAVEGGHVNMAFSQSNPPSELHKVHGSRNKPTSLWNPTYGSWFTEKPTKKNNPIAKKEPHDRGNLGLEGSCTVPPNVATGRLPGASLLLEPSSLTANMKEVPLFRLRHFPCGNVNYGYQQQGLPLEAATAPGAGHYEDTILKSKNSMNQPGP

IC50 [1, 3] [µM]	IC50 [2, 4] [µM]	IC50 [1, 5] [µM]	IC50 [2, 6] [µM]	SMILES	also measured
< 0.1	< 0.1	–	–	CCN1C(=O)CCC(C)(C)c2ccc(Nc3ncc(Cl)c(Nc4c(F)cc(F)cc4C(=O)NC)n3)cc21 [Example 1615, 2-[5-Chloro-2-(1-ethyl-5,5-dimethyl-2-oxo-2,3,4,5-tetrahydro-1H-benzo[b]azepin-8-ylamino)-pyrimidin-4-ylamino]-3,5-difluoro-N-methyl-benzamide]	–
–	–	0.1 to 1	< 0.1	C#CCNC(=O)c1cccc(F)c1Nc1nc(Nc2ccc3c(c2)OCCCN3C(=O)OC)ncc1Cl [Example 1430, 3-[5-Chloro-4-(2-fluoro-6-prop-2-ynylcarbamoyl-phenylamino)-pyrimidin-2-ylamino]-7,8-dihydro-6H-5-oxa-9-aza-benzocycloheptene-9-carboxylic acid methyl ester]	–
0.1 to 1	0.1 to 1	–	–	C#CCOc1cccc(F)c1Nc1nc(Nc2ccc3c(c2)CCOC(=O)N3C)ncc1Cl [Example 1779, 2-[5-Chloro-4-(2-fluoro-6-prop-2-ynyloxy-phenylamino)-pyrimidin-2-ylamino]-5-methyl-8,9-dihydro-5H-7-oxa-5-aza-benzocyclohepten-6-one]	–
< 0.1	1 to 10	–	–	CCN1CCCOc2cc(Nc3ncc(Cl)c(N[C@@H]4CCCC[C@H]4NS(C)(=O)=O)n3)c(F)cc21 [Example 1687, N-{(1R,2R)-2-[5-Chloro-2-(9-ethyl-2-fluoro-6,7,8,9-tetrahydro-5-oxa-9-aza-benzocyclohepten-3-ylamino)-pyrimidin-4-ylamino]-cyclohexyl}-methanesulfonamide]	–
> 10	> 10	–	–	CN1CCc2ccc(Nc3ncc(Cl)c(Nc4ccccc4-c4cc[nH]n4)n3)cc2CC1=O [Example 1825, 8-{5-Chloro-4-[2-(1H-pyrazol-3-yl)-phenylamino]-pyrimidin-2-ylamino}-3-methyl-1,3,4,5-tetrahydro-benzo[d]azepin-2-one]	–

The next lines start with the molecule.

SMILES	IC50 [1, 3] [µM]	IC50 [2, 4] [µM]	IC50 [1, 5] [µM]	IC50 [2, 6] [µM]	also measured
COc1cc2c(cc1Nc1ncc(Cl)c(Nc3ccccc3S(=O)(=O)N(C)C)n1)CCN(CC(=O)N(C)C)CC2 [Example 1141, 2-{7-[5-Chloro-4-(2-dimethylsulfamoyl-phenylamino)-pyrimidin-2-ylamino]-8-methoxy-1,2,4,5-tetrahydro-benzo[d]azepin-3-yl}-N,N-dimethyl-acetamide]	–	–	< 0.1	1 to 10	–
CNC(=O)c1ccccc1Nc1nc(Nc2ccc3c(c2)CCCC(=O)N3)ncc1Cl [Example 2, 2-[5-Chloro-2-(2-oxo-2,3,4,5-tetrahydro-1H-benzo[b]azepin-7-ylamino)-pyrimidin-4-ylamino]-N-methyl-benzamide]	–	–	–	–	IC50 [1, 7]: < 0.1 µM; IC50 [2, 8]: < 0.1 µM
CCN1C(=O)[C@@H](NC(=O)COC)CCc2c1ccc(Nc1ncc(Cl)c(N[C@H]3[C@@H](C(N)=O)[C@@H]4C=C[C@H]3C4)n1)c2OC (single isomer, unassigned) [Example 1351]	–	–	< 0.1	> 10	–
COCCN1CCc2cc(Nc3ncc(Cl)c(Nc4ccccc4-n4cccn4)n3)c(OC)cc2CC1 [Example 1321, 5-Chloro-N*2*-[8-methoxy-3-(2-methoxy-ethyl)-2,3,4,5-tetrahydro-1H-benzo[d]azepin-7-yl]-N*4*-(2-pyrazol-1-yl-phenyl)-pyrimidine-2,4-diamine]	–	–	< 0.1	> 10	–
C#CCN1CCN(C)c2cc(Nc3ncc(Cl)c(N[C@@H]4CCCC[C@H]4NS(C)(=O)=O)n3)ccc2C1 [Example 480, N-{(1R,2R)-2-[5-Chloro-2-(1-methyl-4-prop-2-ynyl-2,3,4,5-tetrahydro-1H-benzo[e][1,4]diazepin-8-ylamino)-pyrimidin-4-ylamino]-cyclohexyl}-methanesulfonamide]	–	–	–	–	IC50 [1, 7]: < 0.1 µM; IC50 [2, 8]: 1 to 10 µM
